Biological target: T1, Gamma-glutamyl transpeptidase (eqGGT) (Equus caballus, UniProt F7DXY0)
T1 construct: GGT from equine kidney (Sigma-Aldrich)
Assay: time-dependent irreversible inactivation, pre-incubation with […] DON then dilution
Type: biochemical

T1 sequence (F7DXY0 75-452): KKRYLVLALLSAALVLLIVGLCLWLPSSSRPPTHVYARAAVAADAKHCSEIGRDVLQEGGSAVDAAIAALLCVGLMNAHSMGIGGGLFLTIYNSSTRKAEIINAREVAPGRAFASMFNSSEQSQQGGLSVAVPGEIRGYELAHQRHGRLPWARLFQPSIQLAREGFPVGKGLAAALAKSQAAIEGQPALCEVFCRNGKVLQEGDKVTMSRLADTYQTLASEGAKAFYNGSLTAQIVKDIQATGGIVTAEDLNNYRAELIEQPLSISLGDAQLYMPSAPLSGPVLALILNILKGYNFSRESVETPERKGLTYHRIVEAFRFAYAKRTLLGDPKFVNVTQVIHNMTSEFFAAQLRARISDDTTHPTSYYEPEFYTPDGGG
T1 sequence (F7DXY0 453-641): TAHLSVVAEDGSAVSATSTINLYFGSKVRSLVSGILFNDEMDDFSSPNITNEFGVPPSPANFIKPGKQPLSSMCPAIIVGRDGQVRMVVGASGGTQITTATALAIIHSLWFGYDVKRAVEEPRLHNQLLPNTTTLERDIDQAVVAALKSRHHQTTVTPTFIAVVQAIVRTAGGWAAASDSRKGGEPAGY

[N-]=[N+]=CC(=O)CC[C@H](N)C(=O)O [DON, 6-diazo-5-oxo-L-norleucine]
time-dependent irreversible inactivation, pre-incubation with 400 μM DON then di: DON acts as an irreversible inhibitor, and then as an inactivator of GGT, because, after dilution, the activity was not restored

From paper PMC6949936, “Probing the Interactions of Sulfur-Containing Histidine Compounds with Human Gamma-Glutamyl Transpeptidase” (Marine Drugs, 2019)
